# According to patent publication US20050197338A1, “Substituted pyrazole urea compounds for the treatment of inflammation” (priority 2003, published 2005):
# Target: T1, human IKK-2 (rhIKK-2 homodimer) (Homo sapiens, UniProt O14920)
# T1 construct: FLAG (DYKDDDDKD) (C); made in house; host or cells: insect cells (baculovirus, pFastBac)
# T1 sequence (O14920 1-756): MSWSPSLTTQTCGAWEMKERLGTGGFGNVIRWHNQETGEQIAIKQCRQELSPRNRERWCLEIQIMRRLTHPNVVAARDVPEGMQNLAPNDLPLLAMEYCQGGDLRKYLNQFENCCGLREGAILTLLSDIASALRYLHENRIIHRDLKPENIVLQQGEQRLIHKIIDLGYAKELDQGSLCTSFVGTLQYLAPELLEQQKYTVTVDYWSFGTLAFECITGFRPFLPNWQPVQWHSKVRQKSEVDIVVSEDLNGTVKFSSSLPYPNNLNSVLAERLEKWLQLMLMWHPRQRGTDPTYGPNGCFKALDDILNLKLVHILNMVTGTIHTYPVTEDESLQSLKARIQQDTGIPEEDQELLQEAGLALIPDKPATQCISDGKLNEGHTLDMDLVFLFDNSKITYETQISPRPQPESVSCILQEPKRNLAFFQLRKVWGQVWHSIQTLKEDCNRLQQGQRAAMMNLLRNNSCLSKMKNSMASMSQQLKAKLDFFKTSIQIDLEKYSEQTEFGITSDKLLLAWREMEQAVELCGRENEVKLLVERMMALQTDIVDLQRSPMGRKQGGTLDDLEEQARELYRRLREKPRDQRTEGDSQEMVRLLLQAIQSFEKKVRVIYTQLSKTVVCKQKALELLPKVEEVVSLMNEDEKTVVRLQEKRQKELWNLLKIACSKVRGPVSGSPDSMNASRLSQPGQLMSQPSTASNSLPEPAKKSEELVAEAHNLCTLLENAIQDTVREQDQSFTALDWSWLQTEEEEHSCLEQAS
# Assay: IKK-2 Resin Enzyme Assay (Human IKK-2 Enzyme Assay)
# Assay type: biochemical
# Settings: human IKK-2, resin enzyme assay; read-out: IC50 (μM) hIKK-2
# In short: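 C-terminally FLAG-tagged human IKK-2 homodimer, baculovirus-expressed in insect cells and anti-FLAG purified. Reaction mix: 5 μM biotinylated IκBα peptide (Ser32/Ser36 region), 1 μM ATP with [γ-33P]ATP, 2 mM MgCl2, 2 mM MnCl2, 10 mM NaF, 1 mM DTT, 25 mM HEPES pH 7.6. Incubated 30 min at 25 °C; IC50 derived.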
row,SMILES,IC50 [µM]
1,"NC(=O)Nc1cn(-c2ccc(-c3ccc(C(=O)O)c(F)c3)cc2)nc1C(N)=O [Example 97, 4′-{3-(aminocarbonyl)-4-[(aminocarbonyl)amino]-1H-pyrazol-1-yl}-3-fluoro-1,1′-biphenyl-4-carboxylic acid]",0.14
2,"NC(=O)Nc1cn(-c2cccc(-c3cc(F)ccc3O)c2)nc1C(N)=O [Example 93, 4-[(aminocarbonyl)amino]-1-(5′-fluoro-2′-hydroxy-1,1′-biphenyl-3-yl)-1H-pyrazole-3-carboxamide]",3.1
